Measurements from patent publication US10016515B2, “DMA, a bis-benzimidazole, confers radioprotection to the intestine via Akt/NFκB dual pathway activation” (Jawaharlal Nehru University, priority 2016, dated 2018).
Read-outs that look alike come from different tables or passages of the source.

Test: Tissue bio-distribution and tissue pharmacokinetics of DMA
Type: in vivo, mouse
Description: Tissue samples were collected from the same mice from which blood samples were collected in both doses of DMA. Lung, liver, kidney, intestine, heart, spleen, brain were dissected and rinsed with phosphate buffer saline (PBS) and dried on blotting paper. 100 mg of tissue sample was homogenized for 20 s in chilled acetronitrile and water and further 700 μl chilled acetronitrile was added. The sample was centrifuged at 14000 rpm for 10 min and clear supernatant was collected for analysis on HPLC-MS/MS system.
A standard DMA calibration from 1-1000 ng/ml with internal standard (20 ng/ml) was quantified. Sample analysis was performed on positive ionization mode LC-MS/MS with multiple reactions monitoring (MRM, m/z Q1/Q3) of DMA (m/z 235.1/412.0, retention time (RT) 5.3 min) and internal standard (m/z 227.1/396.0, RT 6.5 min) (Agilent 6410 series). A gradient method was employed to analyze the plasma samples using mobile phase A (0.1% formic acid in water) and mobile phase B (methanol). The B % was set as 30 (0 min), 90 (10-14 min), 30 (14-24 min) with flow rate of 0.3 ml/min. An injection volume of 10 μl was used for analysis.
Peak tissue concentration (Cmax) of DMA and time to reach the Cmax (tmax) were read directly from the raw data by visual examination of mean tissue concentration-time profile. The tissue concentration-time data following oral dose were subjected to one-, two- and three-compartmental models using WinNonlin program (version 6.3; Certara Inc, Missouri, USA) to calculate the pharmacokinetic parameters. The pharmacokinetic models were compared according to maximal correlation between observed and predicted concentration, minimal sum of squared residuals, Akaike Information Criterion (AIC) and Schwarz Bayesian Criterion (SBC). However, the tissue concentration-time data following intravenous administration were subjected to non-compartmental approach.

[1] = Balb/c, mouse, intestine, iv, i.v. 50 mg/kg, read-out: Tissue DMA concentration, Intestine
[2] = Balb/c, mouse, intestine, Oral 100 mg/kg, read-out: Tissue DMA concentration, Intestine
[3] = Balb/c, mouse, kidney, iv, i.v. 50 mg/kg, read-out: Tissue DMA concentration, Kidney

COc1ccc(-c2nc3cc(-c4nc5cc(N6CCN(C)CC6)ccc5[nH]4)ccc3[nH]2)cc1OC [DMA, 5-(4-methylpiperazin-1-yl)-2-[2′-(3,4-dimethoxyphenyl)-5′-benzimidazolyl]benzimidazole]
Concentration achieved in intestine (50 mg/kg i.v.): 1260 µg/g | Small intestine concentration, i.v. as compared to oral route (50 mg/kg i.v. vs 100 mg/kg oral): 11.88 fold | AUC, Kidney (50 mg/kg intravenous): 945577.2 ng·h/g | AUC, Liver (50 mg/kg intravenous): 889040 ng·h/g | AUC, Lung (50 mg/kg intravenous): 2674622.2 ng·h/g | AUC, Small Intestine (50 mg/kg intravenous): 220072.6 ng·h/g | AUC, Spleen (50 mg/kg intravenous): 145191 ng·h/g | C1 hr, Kidney (50 mg/kg intravenous): 14900 ng/g | C1 hr, Liver (50 mg/kg intravenous): 41600 ng/g | C1 hr, Lung (50 mg/kg intravenous): 109000 ng/g | C1 hr, Small Intestine (50 mg/kg intravenous): 1260000 ng/g | Clearance, Kidney (50 mg/kg intravenous): 17.9 g/h/kg | Clearance, Liver (50 mg/kg intravenous): 39.5 g/h/kg | Clearance, Small Intestine (50 mg/kg intravenous): 15.0 g/h/kg | Clearance, Spleen (50 mg/kg intravenous): 89.3 g/h/kg | Vd, Kidney (50 mg/kg intravenous): 1944.8 g/kg | Vd, Liver (50 mg/kg intravenous): 668.7 g/kg | Vd, Lung (50 mg/kg intravenous): 552.1 g/kg | Vd, Small Intestine (50 mg/kg intravenous): 40360.3 g/kg | Vd, Spleen (50 mg/kg intravenous): 3857.9 g/kg | Vss, Kidney (50 mg/kg intravenous): 1623.5 g/kg | Vss, Liver (50 mg/kg intravenous): 496.11 g/kg | Vss, Lung (50 mg/kg intravenous): 10.72 g/kg | Vss, Small Intestine (50 mg/kg intravenous): 4.9 g/kg | Vss, Spleen (50 mg/kg intravenous): 4114.6 g/kg | AUC, Kidney (100 mg/kg oral dose): 10874.29 ng·h/g | AUC, Liver (100 mg/kg oral dose): 20717.3 ng·h/g | AUC, Small Intestine (100 mg/kg oral dose): 361353.4 ng·h/g | AUC, Spleen (100 mg/kg oral dose): 8353.819 ng·h/g | Cl/F, Kidney (100 mg/kg oral dose): 9190 g/h/kg | Cl/F, Liver (100 mg/kg oral dose): 4000 g/h/kg | Cl/F, Small Intestine (100 mg/kg oral dose): 277 g/h/kg | Cl/F, Spleen (100 mg/kg oral dose): 11000 g/h/kg | Cmax, Kidney (100 mg/kg oral dose): 1530 ng/g | Cmax, Liver (100 mg/kg oral dose): 2230 ng/g | Maximum concentration in small intestine (100 mg/kg oral, at 2 h): 106 µg/g | Maximum concentration in spleen (100 mg/kg oral, at 2 h): 1.31 µg/g | Maximum concentration in kidney (100 mg/kg oral, at 4 h): 1.53 µg/g | Maximum concentration in liver (100 mg/kg oral, at 4 h): 2.23 µg/g | concentration at 2 h [1]: 70400 ng/g | concentration at 4 h [1]: 59200 ng/g | concentration at 6 h [1]: 29700 ng/g | concentration at 16 h [1]: 2530 ng/g | concentration at 24 h [1]: 1710 ng/g | concentration at 1 h (Balb/c, mouse, intestine, Oral 100 mg/kg, 1 h, read-out: Tissue DMA concentration, Intestine): 675 ng/g | concentration at 2 h [2]: 106000 ng/g | concentration at 4 h [2]: 30200 ng/g | concentration at 6 h [2]: 28700 ng/g | concentration at 16 h [2]: 612 ng/g | concentration at 24 h [2]: 410 ng/g | concentration at 1 h (Balb/c, mouse, kidney, intravenous, 50 mg/kg i.v., read-out: Concentration achieved in kidney): 14900 ng/g | concentration at 1 h (Balb/c, mouse, kidney, iv, i.v. 50 mg/kg, 1 h, read-out: Tissue DMA concentration, Kidney): 14900 ng/g | concentration at 2 h [3]: 8370 ng/g | concentration at 4 h [3]: 9080 ng/g | concentration at 6 h [3]: 707 ng/g | concentration at 16 h [3]: 263 ng/g | half-life (Balb/c, mouse, kidney, 100 mg/kg oral dose, read-out: Half life, Kidney (converted)): 150 min
